Data set [1] can be described thus: Measurement of lipophilicity (LogP): octanol-water partition coefficient of the 99mTc complexes. In kind it is physicochemical. As to conditions: for Log P (octanol/50 mM phosphate buffer): 99mTc complex of the compound, 1-octanol / 50 mM phosphate buffer pH 7.4, room temperature; for Log P: 99mTc complex, repeated in the biodistribution table.
Procedure: The tube was vortexed at room temperature for 1 min and then was centrifuged at high speed for 60 min. 0.1 ml samples of both phases were pipetted into other test tubes with adequate care to avoid cross contamination between the phases, and were counted in a Wallac Wizzard gamma-counter. The measurement was repeated three times.
The partition coefficient, P, was calculated as follows: P=(cpm in octanol−(cpm background)/( (cpm in water−(cpm background).
Usually the final partition coefficient value was expressed as log P.
Data set [2] is described as follows: Biodistribution of the 99mTc complexes in normal male Wistar rats. In kind it is in vivo. As to conditions: 99mTc complex, rat; for Clearance (% ID) HBS 120 min / Blood 120 min / Heart 120 min / Liver 120 min / Lung 120 min / Muscle 120 min / Clearance (% ID) Urine (K, B, U) 120 min: 120 min p.i.; for Blood 5 min: 5 min p.i.; for Heart/blood / Heart/liver / Heart/lung / Heart/muscle: ratio of uptake, 120 min values. The method, then:
The ^99mTc complexes of Compounds 4, 5 and 7 were prepared as described in Example 8. […] Animals were anaesthetised with Halothane (6% in oxygen), injected with 0.1 ml (500 MBq/ml) Test Item, sacrificed, dissected and the samples assayed for radioactivity.

Regarding `CCCCc1nc(Cl)c(CNC(=O)C(CC(C)C)NC(=O)CC(CNCCN)CNCCN)n1Cc1ccc(-c2ccccc2-c2nn[nH]n2)cc1` (centres unmarked) (99mTc complex, metal not drawn) [Compound 4], in data set [1], the “Log P (octanol/50 mM phosphate buffer)” value is “+0.6” and the “Log P” value is 0.6. In addition, in data set [2], the “Clearance (% ID) HBS 120 min” value was found to be 74.65 % ID, the “Blood 5 min” value worked out at 3.26 % ID/G, the “Blood 120 min” value is reported as 0.91 % ID/G and the “Heart 120 min” value is 0.44 % ID/G. Moreover, in data set [2], the “Liver 120 min” value is 6.52 % ID/G, the “Lung 120 min” value amounted to 1.84 % ID/G, the “Muscle 120 min” value is reported as 0.34 % ID/G and the Heart/blood is given as 0.49. Moreover, in data set [2], the Heart/liver turned out to be 0.07; the Heart/lung is given as 0.24; the Heart/muscle came to 1.3; the “Clearance (% ID) Urine (K, B, U) 120 min” value is on record as 21.13 % ID.
In the case of `CCCCc1nc(Cl)c(CNC(=O)C(CC(C)C)NC(=O)COCC(=O)NCCOCCOCCOCCNC(=O)CC(CNCCN)CNCCN)n1Cc1ccc(-c2ccccc2-c2nn[nH]n2)cc1` (centres unmarked) (99mTc complex, metal not drawn) [Compound 5], in data set [1], the “Log P (octanol/50 mM phosphate buffer)” value is −0.1 and the “Log P” value is −0.1. Besides, in data set [2], the “Clearance (% ID) HBS 120 min” value stood at 54.21 % ID, the “Blood 5 min” value was 1.5 % ID/G, the “Blood 120 min” value came out at 0.26 % ID/G and the “Heart 120 min” value was 0.13 % ID/G. Also, in data set [2], the “Liver 120 min” value was 3.53 % ID/G, the “Lung 120 min” value is 0.6 % ID/G, the “Muscle 120 min” value came to 0.9 % ID/G and the Heart/blood is 0.5. In data set [2], the Heart/liver was determined as 0.04; the Heart/lung is 0.21; the Heart/muscle turned out to be 1.44; the “Clearance (% ID) Urine (K, B, U) 120 min” value is 14.45 % ID.
`CC[C@H](C)[C@H](NC(=O)[C@@H]1CCCN1C(=O)[C@H](Cc1cnc[nH]1)NC(=O)[C@@H](NC(=O)[C@H](Cc1ccc(O)cc1)NC(=O)[C@@H](NC(=O)[C@H](CCCNC(=N)N)NC(=O)NCCCCCCC(CNCCN)CNCCN)C(C)C)[C@@H](C)CC)C(=O)O` (99mTc complex, metal not drawn) [Compound 7]: in data set [1], the “Log P (octanol/50 mM phosphate buffer)” value was less than −2 and the “Log P” value is given as less than −2. In data set [2], the “Clearance (% ID) HBS 120 min” value amounted to 19.63 % ID, the “Blood 5 min” value was 0.84 % ID/G, the “Blood 120 min” value turned out to be 0.05 % ID/G and the “Heart 120 min” value is reported as 0.1 % ID/G. For the same compound, in data set [2], the “Liver 120 min” value stood at 1.55 % ID/G, the “Lung 120 min” value was determined as 0.4 % ID/G, the “Muscle 120 min” value worked out at 0.1 % ID/G and the Heart/blood is 2. Besides, in data set [2], the Heart/liver is reported as 0.06; the Heart/lung was 0.25; the Heart/muscle was found to be 1; the “Clearance (% ID) Urine (K, B, U) 120 min” value is recorded as 64.26 % ID.
As for `NCCNCC(CNCCN)CC(=O)NCc1ccccc1` [Compound 3], the “Log P (octanol/50 mM phosphate buffer)” value in data set [1] was less than −2.
Same read-out and setting: under `NCCNCC(CCCCCCNC(=O)c1ccccc1)CNCCN` [Compound 6] stands −1.8.

Source of the values: patent US7767796B2, “N4 chelator conjugates” (GE Healthcare Limited, priority 2004, dated 2010).
